Consider two compounds from patent US20090220964A1, “METHODS FOR DIAGNOSING AND TREATING CANCERS VIA MANIPULATIONS OF A...PATHWAY” (UNIVERSITY OF CINCINNATI, priority 2006, published 2009).

The test system of assay [1] is deubiquitylating enzymes, isopeptidase T and ubiquitin C-terminal hydrolase L3. Briefly: Deubiquitylation of Rpb1 in chromatin extract by deubiquitylating enzymes. The format is biochemical. To be noted: second 0.5 M chromatin fraction of VHL(+) cells. The text has this: Rpb1 was immunoprecipitated using H14 antibody from the second 0.5 M chromatin fraction, and the immunoprecipitated Rpb1 was immunobloted with BP and anti-ubiquitin antibodies (FIG. 3D). Clearly, the Rpb1 hyperphosphorylated on Ser-5 is also hydroxylated and ubiquitylated in response to oxidative stress and this response depends on the presence of functional pVHL (FIG. 1C). To confirm ubiquitylation of the hydroxylated and hyperphosphorylated Rpb1, the extracts from the second 0.5 M chromatin fraction of VHL(+) cells were incubated with deubiquitylating enzymes, isopeptidase T and ubiquitin C-terminal hydrolase L3. This treatment results in disappearance of the high migrating forms (FIG. 3E. lane 3) which is prevented by ubiquitin aldehyde, an inhibitor of deubiquitylating enzymes (FIG. 3E, lane 4).

Assay [2] relates to pVHL. Nature of the assay: Immunoblot of crude chromatin fractions after H2O2 treatment. To be noted: cells expressing wild type pVHL, 25 μM H2O2, collected 4 h after treatment. Background: Immunoblotting shows a protein as a band on a membrane.
Text: In our experiments, we fractionated the pool of Rpb1 engaged on DNA using nuclease digestion and different salt extractions: the nuclear pellet remaining after standard extraction of nuclei with 0.3 M salt was digested with DNAse and micrococcal nuclease, and the digest was then extracted with the indicated concentrations of NaCl (FIG. 3). […] Two other antibodies against Rpb1 were also used: H14, and N20, which is specific for the N-terminal region of Rpb1, independent of its phosphorylation state.
Assay [3] deals with Rpb1. The settings on record: 786-0 VHL(+) cells, 25 μM H2O2, 15 min, nuclease digested extracts.
Experimental: The antibody was used to investigate the role of oxidative stress in P1465 hydroxylation and pVHL-dependent ubiquitylation of Rpb1. […] The experiments were performed using RCC 786-0 cells, a well-characterized model of renal cell cancer, in which native pVHL is absent or stably reconstituted (in legend: 786-0 VHL(−) and VHL(+)). The cells were exposed briefly to a low concentration of H2O2 (25 μM, 15 min) to induce a generic oxidative stress, and assayed at the indicated time points after treatment.
Assay [4] concerns Rpb1 peptides. The settings on record: nuclear extracts from 786-0 VHL(+) cells treated with 25 μM H2O2, collected after 4 h; 37- or 24-amino acid peptides. As to the method:
(§1) The in vitro reactions of synthetic Rpb1 and HIF-1α peptides were performed using nuclear extracts from cells treated with 25 μM H2O2 and collected after 4 h.

For assay [5], the system named is HIF-1α peptide. The settings on record: nuclear extracts from VHL(+) cells treated with 25 μM H2O2, collected after 4 h; 17-amino acid peptide. How it is done: as §1

As for ubiquitin aldehyde, the “disappearance of high migrating (ubiquitylated) forms of Rpb1” value in assay [1] is recorded as “prevented”.

With `OO` [H2O2, hydrogen peroxide], in assay [2], the “enrichment of pVHL in chromatin extract fractions” value was 3.5+/−1.1 fold increase. The “hydroxylation of Rpb1” value in assay [3] is given as “induced persistent (lasting several hours) pVHL-dependent hydroxylation of Rpb1”. Also, the “Rpb1 peptide hydroxylation (capture of [35S]-labeled pVHL)” value in assay [4] is listed as “augmented peptide hydroxylation”. Further, the “HIF-1α peptide hydroxylation (capture of [35S]-labeled pVHL)” value in assay [5] is listed as “not affected”.
